Measured values from patent US9181231B2, “Pyruvate kinase activators for use for increasing lifetime of the red blood cells and treating anemia” (AGIOS PHARMACEUTICALS, INC, priority 2011, dated 2015).

Key:
Assay type in all cases: biochemical
Conditions in all cases: compound at 1 μM
[1] = target: PKR R510Q (Homo sapiens, UniProt P30613, R510Q); assay: PKR R510Q Single Point Percent Activation Assay
Method: PKR R510Q Single Point Percent Activation Assay
(§1) A compound described herein was diluted with DMSO and tested at 1 μM concentration. The enzyme was diluted in 1× Buffer: (100 mM KCl, 50 mM Tris 7.5, 5 mM MgCl2, 1 mM DTT, 0.03% BSA). 2 μL of compound solution was first added into wells, and then 180 μL of enzyme solution was added. Assays were assembled except for ADP, and plates were stored for 60 minutes at RT. 20 μL ADP was added to start the assay and assay output was evaluated using OD340 at SpectraMax. The assay was run at room temperature.
PKR R510Q (40 ng/well), Tris pH 7.5 (50 mM), KCl (100 mM), MgCl2 (5 mM), ADP (0.2 mM), PEP (0.11 mM), NADH (180 μM), LDH (0.5 units, Sigma 59023), DTT (1 mM) and BSA (0.03%).

[2] = target: PKR R532W (Homo sapiens, UniProt P30613, R532W); assay: PKR R532W Single Point Percent Activation Assay
Method: PKR R532W Single Point Percent Activation Assay
as §1
PKR R532W (100 ng/well), Tris pH 7.5 (50 mM), KCl (100 mM), MgCl2 (5 mM), ADP (0.36 mM), PEP (0.1 mM), NADH (180 μM), LDH (0.5 units, Sigma 59023), DTT (1 mM) and BSA (0.03%).

[3] = test system: PKR T384W; assay: PKR T384W Single Point Percent Activation Assay
Method: PKR T384W Single Point Percent Activation Assay
A compound described herein was diluted with DMSO and tested at 1 μM concentration. The enzyme was diluted in 1× Buffer: (100 mM KCl, 50 mM Tris 7.5, 5 mM MgCl2, 1 mM DTT, 0.03% BSA). 2 μL of compound solution was first added into wells, and then 180 μL enzyme solution was added. Assays were assembled except for ADP, and plates were stored for 60 minutes at RT. 20 μL ADP was added to start the assay and assay output was evaluated using OD340 at SpectraMax. The assay was run at room temperature.
PKR T384W soluble (300 ng/well), Tris pH 7.5 (50 mM), KCl (100 mM), MgCl2 (5 mM), ADP (0.08 mM), PEP (0.23 mM), NADH (180 μM), LDH (0.5 units, Sigma 59023), DTT (1 mM) and BSA (0.03%).

[4] = target: PKR wt (Homo sapiens, UniProt P30613); assay: PKR Wide Type Single Point Percent Activation Assay
Method: PKR Wide Type Single Point Percent Activation Assay
as §1
PKR wt (100 ng/well), Tris pH 7.5 (50 mM), KCl (100 mM), MgCl2 (5 mM), ADP (0.48 mM), PEP (0.15 mM), NADH (180 μM), LDH (0.5 units, Sigma 59023), DTT (1 mM) and BSA (0.03%).

PKR R510Q, sequence (P30613 whole entry R510Q): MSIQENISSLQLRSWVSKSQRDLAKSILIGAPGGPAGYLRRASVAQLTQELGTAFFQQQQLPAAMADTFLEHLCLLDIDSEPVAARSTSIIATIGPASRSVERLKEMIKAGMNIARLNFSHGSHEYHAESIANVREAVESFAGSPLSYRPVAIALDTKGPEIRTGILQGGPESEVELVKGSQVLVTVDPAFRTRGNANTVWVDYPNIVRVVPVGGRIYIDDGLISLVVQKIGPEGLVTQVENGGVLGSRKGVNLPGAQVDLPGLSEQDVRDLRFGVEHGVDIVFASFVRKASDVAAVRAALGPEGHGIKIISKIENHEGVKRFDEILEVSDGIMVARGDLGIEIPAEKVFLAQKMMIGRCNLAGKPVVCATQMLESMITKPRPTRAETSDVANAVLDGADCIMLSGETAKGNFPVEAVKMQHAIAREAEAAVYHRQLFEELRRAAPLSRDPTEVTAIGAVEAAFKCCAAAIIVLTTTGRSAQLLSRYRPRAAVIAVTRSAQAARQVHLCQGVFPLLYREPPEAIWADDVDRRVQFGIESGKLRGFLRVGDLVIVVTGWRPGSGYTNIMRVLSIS
PKR wt, sequence (P30613 whole entry): as the sequence (P30613 whole entry R510Q) above, with Q510R counted along it
PKR R532W, sequence (P30613 whole entry R532W): as the sequence (P30613 whole entry R510Q) above, with Q510R, R532W counted along it

| Compound | % Act. R510Q [1] | % Act. R532W [2] | % Act. T384W [3] | % Act. WT [4] |
| --- | --- | --- | --- | --- |
| CN1C(=O)COc2ccc(S(=O)(=O)Nc3ccc(F)c(Cl)c3)cc21 | B (a % activation at 1 μM of from 101 to 500) | B (a % activation at 1 μM of from 101 to 500) | B (a % activation at 1 μM of from 101 to 500) | B (a % activation at 1 μM of from 101 to 500) |
| O=C(c1c(F)cccc1F)N1CCN(S(=O)(=O)c2ccc3c(c2)OCCO3)CC1 | B (a % activation at 1 μM of from 101 to 500) | B (a % activation at 1 μM of from 101 to 500) | B (a % activation at 1 μM of from 101 to 500) | B (a % activation at 1 μM of from 101 to 500) |
| O=C1Oc2ccc(S(=O)(=O)Nc3ccc(F)c(Cl)c3)cc2CN1Cc1ccccc1 | B (a % activation at 1 μM of from 101 to 500) | B (a % activation at 1 μM of from 101 to 500) | B (a % activation at 1 μM of from 101 to 500) | B (a % activation at 1 μM of from 101 to 500) |
| O=C1CN(Cc2ccccc2)c2cc(S(=O)(=O)Nc3cccc(Cl)c3)ccc2O1 | B (a % activation at 1 μM of from 101 to 500) | A (a % activation at 1 μM of from 1 to 100) | A (a % activation at 1 μM of from 1 to 100) | A (a % activation at 1 μM of from 1 to 100) |
| O=C1Nc2cc(S(=O)(=O)Nc3cccc(F)c3)ccc2NC1Cc1ccccc1 (stereo not shown) | B (a % activation at 1 μM of from 101 to 500) | B (a % activation at 1 μM of from 101 to 500) | B (a % activation at 1 μM of from 101 to 500) | B (a % activation at 1 μM of from 101 to 500) |
| CN1c2ccc(S(=O)(=O)Nc3cccc(F)c3)cc2NC(=O)C1Cc1ccccc1 (stereo not shown) | B (a % activation at 1 μM of from 101 to 500) | B (a % activation at 1 μM of from 101 to 500) | B (a % activation at 1 μM of from 101 to 500) | B (a % activation at 1 μM of from 101 to 500) |
| CN1c2cc(S(=O)(=O)Nc3cccc(F)c3)ccc2OC(=O)[C@@H]1Cc1ccccc1 | B (a % activation at 1 μM of from 101 to 500) | A (a % activation at 1 μM of from 1 to 100) | B (a % activation at 1 μM of from 101 to 500) | B (a % activation at 1 μM of from 101 to 500) |
